Measured values taken from PMC10084949, “Peptide Variant Detection by a Living Yeast Biosensor via an Epitope-Selective Protease” (Biodesign Research, 2023).

Columns and labels:
ScSte2 + ScBar1 = target: T1, ScSte2 + ScBar1 (Saccharomyces cerevisiae, UniProt D6VTK4); assay: Dose-response activation of ScSte2 biosensor strain secreting ScBar1 (two copies, yBB01), fluorescent readout; assay type: cell-based; settings: SEM
T1 construct: we cloned codon-optimized open reading frames (ORFs) of all 5 proteases and GPCRs; expressed in transfected cells; host or cells: S. cerevisiae yBB01 (from yTC370; pTDH3-ScSTE2, two pCCW12-ScBAR1 cassettes, genome-integrated)
Protocol: (§1) Glycerol stocked strains were streaked out on YPD plate and incubated for 2 days. Three colonies were picked, replated on YPD plate, incubated for 1 day, and then stored at 4 °C. For activation assays, a small scoop of yeast patch from the 3 colonies was resuspended in ~4 ml of YPD medium and incubated overnight. Overnight cells were seeded at an optical density at 600 nm (OD600) of 0.15 (as measured in 96-well plate at 200-μl volume) in SC/Glc medium after washing twice with sterile Mili-Q H2O. GPCR activity and response to increasing concentrations of synthetic peptide ligands were measured in strains carrying appropriate genome-integrated components in 96-well microtiter plates in 200-μl total volume and cultured at 30 °C and 800 rpm, unless otherwise stated. All measurements were performed in biological triplicate. Culture turbidity (OD600) and fluorescence for ymTurquoise2 (excitation, 439 nm; emission, 475 nm; gain, 75) were measured after 0 and 8 h using an Infinite 200 Pro plate reader (Tecan). Dose–response curve was measured at 11 different concentrations of the appropriate synthetic peptide ligand with a constant dilution factor and a no-peptide, H2O control. The absorbance at 600 nm normalized fluorescence values and log10-transformed peptide concentrations were fit to a 4-parameter nonlinear regression model using Prism (GraphPad) to extract GPCR-specific values for basal activation, maximal activation, EC50, and the Hill coefficient.
(§2) Statistical tests of all experiments were performed using GraphPad Prism version 7 and are detailed within the legend of each figure. In all figures, the data points represent means ± SD of biological triplicates. Curves fitted to all dose–response data were fitted in Prism 7 using the nonlinear regression: variable slope (4-parameter) curve fitting.
(§3) Changes in EC50 and activation span (maximal fluorescence activation − basal fluorescence activation) due to difference in variant peptide sequences from the wild-type peptides are depicted as ΔlogEC50 from wild-type Pep (variant peptide logEC50 − wild-type peptide logEC50) and ΔSpan from wild-type Pep (variant peptide Span – wild-type peptide Span), respectively. Apparent shift in EC50 and change in activation span in both wild-type and variant peptides due to protease expression are depicted as ΔlogEC50 with protease (peptide logEC50 with protease − peptide logEC50 without protease) and ΔSpan with protease (peptide Span with protease − peptide Span without protease), respectively.

ScSte2 = target: T2, ScSte2 (Saccharomyces cerevisiae, UniProt D6VTK4); assay: cell-based; settings: SEM
T2 construct: we cloned codon-optimized open reading frames (ORFs) of all 5 proteases and GPCRs; expressed in transfected cells; host or cells: S. cerevisiae yTC391 (from yTC370, native STE2 deleted; pTDH3-ScSTE2 genome-integrated)
Protocol: as §1, §2, §3

T1 sequence (D6VTK4 whole entry): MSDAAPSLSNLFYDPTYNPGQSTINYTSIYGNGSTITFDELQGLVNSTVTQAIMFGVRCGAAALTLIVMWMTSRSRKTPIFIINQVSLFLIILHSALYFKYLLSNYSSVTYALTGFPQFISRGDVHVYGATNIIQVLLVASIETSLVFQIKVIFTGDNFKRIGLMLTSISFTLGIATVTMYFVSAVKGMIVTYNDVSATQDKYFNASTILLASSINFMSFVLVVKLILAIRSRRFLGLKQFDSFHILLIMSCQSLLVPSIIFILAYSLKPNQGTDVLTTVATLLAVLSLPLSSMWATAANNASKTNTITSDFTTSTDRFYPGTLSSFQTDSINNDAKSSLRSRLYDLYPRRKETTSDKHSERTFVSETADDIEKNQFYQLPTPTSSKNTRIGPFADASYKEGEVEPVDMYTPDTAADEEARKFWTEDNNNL
T2 sequence (D6VTK4 whole entry): as above

CSCC[C@H](NC(=O)[C@@H]1CCCN1C(=O)[C@H](CCC(N)=O)NC(=O)CNC(=O)[C@H](C)NC(=O)[C@H](CCCCN)NC(=O)[C@H](CC(C)C)NC(=O)[C@H](CCC(N)=O)NC(=O)[C@H](CC(C)C)NC(=O)[C@H](Cc1c[nH]c2ccccc12)NC(=O)[C@H](Cc1c[nH]cn1)NC(=O)[C@@H](N)Cc1c[nH]c2ccccc12)C(=O)N[C@@H](Cc1ccc(O)cc1)C(=O)O [ScPep8A]
EC50 (ScSte2 + ScBar1): 2510 nM | EC50 (ScSte2): 79.4 nM

CSCC[C@H](NC(=O)[C@@H]1CCCN1C(=O)[C@H](CCC(N)=O)NC(=O)CNC(=O)[C@@H]1CCCN1C(=O)[C@H](C)NC(=O)[C@H](CC(C)C)NC(=O)[C@H](CCC(N)=O)NC(=O)[C@H](CC(C)C)NC(=O)[C@H](Cc1c[nH]c2ccccc12)NC(=O)[C@H](Cc1c[nH]cn1)NC(=O)[C@@H](N)Cc1c[nH]c2ccccc12)C(=O)N[C@@H](Cc1ccc(O)cc1)C(=O)O [ScPep7A]
EC50 (ScSte2 + ScBar1): 3980 nM | EC50 (ScSte2): 126 nM

CC(C)C[C@H](NC(=O)[C@H](Cc1c[nH]c2ccccc12)NC(=O)[C@H](Cc1c[nH]cn1)NC(=O)[C@@H](N)Cc1c[nH]c2ccccc12)C(=O)N[C@@H](CCC(N)=O)C(=O)N[C@@H](CC(C)C)C(=O)N[C@@H](CCCCN)C(=O)N1CCC[C@H]1C(=O)NCC(=O)N[C@@H](CCC(N)=O)C(=O)N1CCC[C@H]1C(=O)N[C@@H](C)C(=O)N[C@@H](Cc1ccc(O)cc1)C(=O)O [ScPep12A]
EC50 (ScSte2 + ScBar1): 1000 nM | EC50 (ScSte2): 50.1 nM

CSCC[C@H](NC(=O)[C@@H]1CCCN1C(=O)[C@H](CCC(N)=O)NC(=O)CNC(=O)[C@@H]1CCCN1C(=O)[C@H](CCCCN)NC(=O)[C@H](CC(C)C)NC(=O)[C@H](CCC(N)=O)NC(=O)[C@H](CC(C)C)NC(=O)[C@H](Cc1c[nH]c2ccccc12)NC(=O)[C@H](Cc1c[nH]cn1)NC(=O)[C@H](C)N)C(=O)N[C@@H](Cc1ccc(O)cc1)C(=O)O [ScPep1A]
EC50 (ScSte2 + ScBar1): 1260 nM | EC50 (ScSte2): 39.8 nM

CSCC[C@H](NC(=O)[C@@H]1CCCN1C(=O)[C@H](CCC(N)=O)NC(=O)CNC(=O)[C@@H]1CCCN1C(=O)[C@H](CCCCN)NC(=O)[C@H](CC(C)C)NC(=O)[C@H](CCC(N)=O)NC(=O)[C@H](C)NC(=O)[C@H](Cc1c[nH]c2ccccc12)NC(=O)[C@H](Cc1c[nH]cn1)NC(=O)[C@@H](N)Cc1c[nH]c2ccccc12)C(=O)N[C@@H](Cc1ccc(O)cc1)C(=O)O [ScPep4A]
EC50 (ScSte2 + ScBar1): 3980 nM

CSCC[C@H](NC(=O)[C@@H]1CCCN1C(=O)[C@H](CCC(N)=O)NC(=O)[C@H](C)NC(=O)[C@@H]1CCCN1C(=O)[C@H](CCCCN)NC(=O)[C@H](CC(C)C)NC(=O)[C@H](CCC(N)=O)NC(=O)[C@H](CC(C)C)NC(=O)[C@H](Cc1c[nH]c2ccccc12)NC(=O)[C@H](Cc1c[nH]cn1)NC(=O)[C@@H](N)Cc1c[nH]c2ccccc12)C(=O)N[C@@H](Cc1ccc(O)cc1)C(=O)O [ScPep9A]
EC50 (ScSte2 + ScBar1): 15800 nM | EC50 (ScSte2): 158 nM

CSCC[C@H](NC(=O)[C@@H]1CCCN1C(=O)[C@H](CCC(N)=O)NC(=O)CNC(=O)[C@@H]1CCCN1C(=O)[C@H](CCCCN)NC(=O)[C@H](CC(C)C)NC(=O)[C@H](CCC(N)=O)NC(=O)[C@H](CC(C)C)NC(=O)[C@H](C)NC(=O)[C@H](Cc1c[nH]cn1)NC(=O)[C@@H](N)Cc1c[nH]c2ccccc12)C(=O)N[C@@H](Cc1ccc(O)cc1)C(=O)O [ScPep3A]
EC50 (ScSte2 + ScBar1): 25100 nM | EC50 (ScSte2): 63.1 nM

CSCC[C@H](NC(=O)[C@@H]1CCCN1C(=O)[C@H](CCC(N)=O)NC(=O)CNC(=O)[C@@H]1CCCN1C(=O)[C@H](CCCCN)NC(=O)[C@H](CC(C)C)NC(=O)[C@H](CCC(N)=O)NC(=O)[C@H](CC(C)C)NC(=O)[C@H](Cc1c[nH]c2ccccc12)NC(=O)[C@H](Cc1c[nH]cn1)NC(=O)[C@@H](N)Cc1c[nH]c2ccccc12)C(=O)N[C@@H](C)C(=O)O [ScPep13A]
EC50 (ScSte2 + ScBar1): 7940 nM | EC50 (ScSte2): 63.1 nM

CSCC[C@H](NC(=O)[C@@H]1CCCN1C(=O)[C@H](C)NC(=O)CNC(=O)[C@@H]1CCCN1C(=O)[C@H](CCCCN)NC(=O)[C@H](CC(C)C)NC(=O)[C@H](CCC(N)=O)NC(=O)[C@H](CC(C)C)NC(=O)[C@H](Cc1c[nH]c2ccccc12)NC(=O)[C@H](Cc1c[nH]cn1)NC(=O)[C@@H](N)Cc1c[nH]c2ccccc12)C(=O)N[C@@H](Cc1ccc(O)cc1)C(=O)O [ScPep10A]
EC50 (ScSte2 + ScBar1): 6310 nM | EC50 (ScSte2): 126 nM

CSCC[C@H](NC(=O)[C@@H]1CCCN1C(=O)[C@H](CCC(N)=O)NC(=O)CNC(=O)[C@@H]1CCCN1C(=O)[C@H](CCCCN)NC(=O)[C@H](C)NC(=O)[C@H](CCC(N)=O)NC(=O)[C@H](CC(C)C)NC(=O)[C@H](Cc1c[nH]c2ccccc12)NC(=O)[C@H](Cc1c[nH]cn1)NC(=O)[C@@H](N)Cc1c[nH]c2ccccc12)C(=O)N[C@@H](Cc1ccc(O)cc1)C(=O)O [ScPep6A]
EC50 (ScSte2 + ScBar1): 3160 nM | EC50 (ScSte2): 79.4 nM

CSCC[C@H](NC(=O)[C@@H]1CCCN1C(=O)[C@H](CCC(N)=O)NC(=O)CNC(=O)[C@@H]1CCCN1C(=O)[C@H](CCCCN)NC(=O)[C@H](CC(C)C)NC(=O)[C@H](CCC(N)=O)NC(=O)[C@H](CC(C)C)NC(=O)[C@H](Cc1c[nH]c2ccccc12)NC(=O)[C@H](C)NC(=O)[C@@H](N)Cc1c[nH]c2ccccc12)C(=O)N[C@@H](Cc1ccc(O)cc1)C(=O)O [ScPep2A]
EC50 (ScSte2 + ScBar1): 10000 nM | EC50 (ScSte2): 79.4 nM

CSCC[C@H](NC(=O)[C@H](C)NC(=O)[C@H](CCC(N)=O)NC(=O)CNC(=O)[C@@H]1CCCN1C(=O)[C@H](CCCCN)NC(=O)[C@H](CC(C)C)NC(=O)[C@H](CCC(N)=O)NC(=O)[C@H](CC(C)C)NC(=O)[C@H](Cc1c[nH]c2ccccc12)NC(=O)[C@H](Cc1c[nH]cn1)NC(=O)[C@@H](N)Cc1c[nH]c2ccccc12)C(=O)N[C@@H](Cc1ccc(O)cc1)C(=O)O [ScPep11A]
EC50 (ScSte2 + ScBar1): 2510 nM | EC50 (ScSte2): 50.1 nM

CSCC[C@H](NC(=O)[C@@H]1CCCN1C(=O)[C@H](CCC(N)=O)NC(=O)CNC(=O)[C@@H]1CCCN1C(=O)[C@H](CCCCN)NC(=O)[C@H](CC(C)C)NC(=O)[C@H](C)NC(=O)[C@H](CC(C)C)NC(=O)[C@H](Cc1c[nH]c2ccccc12)NC(=O)[C@H](Cc1c[nH]cn1)NC(=O)[C@@H](N)Cc1c[nH]c2ccccc12)C(=O)N[C@@H](Cc1ccc(O)cc1)C(=O)O [ScPep5A]
EC50 (ScSte2 + ScBar1): 501 nM | EC50 (ScSte2): 50.1 nM
